The source made the active and inactive calls. How the calls were made is not given here.
Columns and labels:
[1] = growth inhibition of yeast vps1Δ mutant, dose response, S. cerevisiae, background strain comparison (AID 790); details: S. cerevisiae vps1Δ mutant growth inhibition; measured here: background strain growth inhibition
[2] = tested on: S. cerevisiae vps1Δ mutant growth inhibition; test: as above

SMILES	IC50 [1] [µM]	IC50 [2]
Cc1cc(N2C(=O)C3CCCN3C2c2sccc2C)no1 (stereo not given)	> 10	> 10 µM (inactive)
CCn1c(=O)[nH]c2cc(C(=O)N3CCN(c4ccccc4)CC3)ccc2c1=O	> 10	> 10 µM (inactive)
O=C(Nc1nnc(C2CC2)o1)c1ccc(S(=O)(=O)N2CCCc3ccccc32)cc1	3.17	11.9 µM (inactive)
O=C(NCC(c1cccnc1)N1CCN(c2ccccc2)CC1)c1ccc2c(c1)OCO2 (stereo not given)	> 10	> 10 µM (inactive)
O=C(c1ccco1)N1CCN(c2ncnc3c2[nH]c2ccccc23)CC1	> 10	> 10 µM (inactive)
CN1CCN(CCCNC(=O)Cn2nc(-c3ccccc3)ccc2=O)CC1	> 10	> 10 µM (inactive)
N#CC1=C(N)C(C#N)(C#N)C(c2cccnc2)C2CC(c3ccccc3)CC=C12 (stereo not given)	2.97	3.03 µM (inactive)
CC(NC(=O)CSc1nc2c(cc1C#N)CN(C)CC2)c1ccccc1 (stereo not given)	> 10	> 10 µM (inactive)
CCOC(=O)C(NC(C)=O)(Nc1ccc(S(=O)(=O)Nc2onc(C)c2C)cc1)C(F)(F)F (stereo not given)	> 10	> 10 µM (inactive)
CCOc1cc(/C=C\[N+](=O)[O-])ccc1OCC(=O)Nc1ccccc1C	> 10	25.4 µM
Cc1ccc(C(=O)c2c(NC(=O)c3ccncc3)sc3c2CCCC3)cc1	> 10	> 10 µM (inactive)
CCOC(=O)c1cc2c(ccn2C)n1CC(=O)N1CCN(c2ccccc2OC)CC1	> 10	> 10 µM (inactive)
O=C(NCC(c1cccnc1)N1CCN(c2ccccc2)CC1)C1CCCCC1 (stereo not given)	> 10	> 10 µM (inactive)
CCc1ccc(N(C(=O)c2csnn2)C(C(=O)NC(C)(C)C)c2ccncc2)cc1 (stereo not given)	> 10	> 10 µM (inactive)
CCN(CC)c1ccc(-c2nc3cnccc3n2C)cc1	> 10	> 10 µM (inactive)
Cc1cc(C)n2nc(C(=O)NCc3ccccc3)cc2n1	> 10	> 10 µM (inactive)
O=C1c2ccccc2C(=O)c2c1oc(C(F)(F)F)c2C(=O)c1ccccc1	2.2	1.3 µM
CCn1c(SCC(=O)N2CCCc3ccccc32)nnc1-c1ccco1	> 10	> 10 µM (inactive)
CCN(CC)c1nc2cc(OC)ccc2cc1C#N	> 10	> 10 µM (inactive)
CCc1cc2c(=O)c(Oc3ccccc3F)c(C)oc2c(CN(C)C)c1O	> 10	> 10 µM (inactive)

SMILES	IC50 [1] [µM]	IC50 [2]
C/C(=N\N=C(/N)SC1CC(=O)N(c2ccc(Cl)c(Cl)c2)C1=O)c1cccs1 (stereo not given)	5.98	4.46 µM
O=c1c2c3c(sc2ncn1/N=C/c1ccc([N+](=O)[O-])o1)CCCC3	1.59	2.19 µM (inactive)
C=C(C)C1CC=C(CN2CCC(C(=O)OCC)CC2)CC1 (stereo not given)	> 10	> 10 µM (inactive)
Cc1ccc(C2N(c3ccc(Cl)c(Cl)c3)C(=O)C3CCCN32)o1 (stereo not given)	> 10	> 10 µM (inactive)
COCCNC(=O)C(c1ccc(F)cc1)N(CC1CCCO1)C(=O)CCC(=O)Nc1ccccn1 (stereo not given)	> 10	> 10 µM (inactive)
CC1=CC(C)(C)Nc2ccc(OC(=O)CN3C(=O)c4cccc5cccc(c45)C3=O)cc21	> 10	> 10 µM (inactive)
O=C1c2cccc3c([N+](=O)[O-])ccc(c23)C(=O)N1c1ccc(Cl)cn1	6.08	8.74 µM (inactive)
O=C(CCC(=O)OCC(=O)c1ccc(F)cc1)NC1CCCCC1	> 10	> 10 µM (inactive)
CCOC(=O)N1CCN(c2ccc(S(=O)(=O)N(Cc3ccccc3)Cc3ccccc3)cn2)CC1	> 10	> 10 µM (inactive)
OC(Cn1ccnc1)c1ccc(Cl)cc1Cl (stereo not given)	> 10	> 10 µM (inactive)
C/C(CCC12CC3CC(CC(C3)C1)C2)=N\NC(N)=S	5.28	12.7 µM (inactive)
Cc1c(Cc2ccccc2)c(=O)oc2c(C)c(OCc3nn[nH]n3)ccc12	> 10	> 10 µM (inactive)
Nc1c(C(=O)OCC2CCCO2)c2nc3ccccc3nc2n1-c1ccc2c(c1)OCCO2 (stereo not given)	> 10	> 10 µM (inactive)
COc1ccc(C2=NC(C(F)(F)F)(C(F)(F)F)c3c(n(C)c(=O)n(C)c3=O)N2)cc1	> 10	> 10 µM (inactive)
COCCCNc1ccnc2c(Cl)cccc12	> 10	> 10 µM (inactive)
COc1cccc(OCCCCN2CC(C)OC(C)C2)c1 (stereo not given)	> 10	> 10 µM (inactive)
Cc1ccc(Cl)c(OCCCCN(C)Cc2ccccc2)c1	> 10	> 10 µM (inactive)
CSc1ncccc1C(=O)OCC(=O)N1CCOCC1	> 10	> 10 µM (inactive)
Clc1ccc(-c2n[nH]c3c2CCC3)cc1Cl	1.81	1.07 µM
Clc1ccc(-c2cnc(Oc3ccccc3)nc2)cc1	> 10	> 10 µM (inactive)

— PubChem BioAssay AID790 (SRMLSC, 2007)
